Laboratory results from article PMC10137179, “Assessment of Covalently Binding Warhead Compounds in the Validation of the Cytomegalovirus Nuclear Egress Complex as an Antiviral Target” (Cells, 2023).
Where two headings read alike, the source gives them in different places.

Experiments:
[1] = molecular target: T1, pUL97–cyclin H interaction (LgBiT::UL97(231–280)-Flag + SmBiT::CycH-HA) (UniProt P16788+P51946); assay: NanoBiT specificity control, pUL97–cyclin H; assay type: cell-based, HCMV; settings: ibrutinib 3.75–30 µM
T1 construct: open reading frames coding for HCMV pUL97 (amino acids 231–280); expressed in transfected cells; host or cells: 293T
T1 sequence (P16788 231-280 limits assumed): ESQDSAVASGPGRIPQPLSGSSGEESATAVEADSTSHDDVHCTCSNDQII
T1 sequence (P51946 1-323): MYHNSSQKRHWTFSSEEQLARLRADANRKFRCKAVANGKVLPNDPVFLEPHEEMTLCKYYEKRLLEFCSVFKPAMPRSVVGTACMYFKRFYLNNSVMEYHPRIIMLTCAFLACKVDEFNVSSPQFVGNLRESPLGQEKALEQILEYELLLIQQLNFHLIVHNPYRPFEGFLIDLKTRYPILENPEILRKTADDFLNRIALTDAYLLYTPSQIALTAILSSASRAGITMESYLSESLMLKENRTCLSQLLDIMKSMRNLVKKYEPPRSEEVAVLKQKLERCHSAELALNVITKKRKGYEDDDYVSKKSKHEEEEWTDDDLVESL

[2] = molecular target: T2, pUL50–pUL53 interaction (LgBiT::UL53-Flag + SmBiT::UL50-HA) (Human cytomegalovirus, UniProt P16791); assay type: cell-based; settings: 293T cells, 5×, 1× or 0.2× anti-HCMV EC50 levels, full-length LgBiT::UL53-Flag
T2 construct: expressed in transfected cells; host or cells: 293T
T2 sequence (P16791 whole entry): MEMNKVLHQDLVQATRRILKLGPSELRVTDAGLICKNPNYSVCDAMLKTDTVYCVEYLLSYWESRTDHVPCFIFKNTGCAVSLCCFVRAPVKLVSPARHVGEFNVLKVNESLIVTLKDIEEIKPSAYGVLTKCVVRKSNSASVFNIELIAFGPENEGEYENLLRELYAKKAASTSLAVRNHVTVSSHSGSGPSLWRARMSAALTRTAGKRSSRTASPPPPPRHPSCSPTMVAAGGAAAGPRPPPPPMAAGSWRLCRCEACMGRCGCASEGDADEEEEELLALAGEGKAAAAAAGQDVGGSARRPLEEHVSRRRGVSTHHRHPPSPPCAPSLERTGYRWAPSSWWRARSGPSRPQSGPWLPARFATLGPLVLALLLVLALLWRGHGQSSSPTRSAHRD

[3] = molecular target: T3, pUL50–pUL53 interaction (LgBiT::UL53(1–87)-Flag + SmBiT::UL50-HA) (Human cytomegalovirus, UniProt P16791); assay type: cell-based; settings: 293T cells, 5×, 1× or 0.2× anti-HCMV EC50 levels, truncated LgBiT::UL53(1–87)-Flag
T3 construct: expressed in transfected cells; host or cells: 293T
T3 sequence (P16791 whole entry, the tested form may be a part): as the sequence (P16791 whole entry) above

HCMV ∆UL50-ΣUL53 = assay: qPCR-based replication assay, HCMV ∆UL50-ΣUL53 in HFF-UL50 cells; assay type: cell-based
Description: (§1) The viral genome copy number in cell culture supernatants was determined by IE1-specific quantitative real-time PCR (qPCR) as described previously. […] For the qPCR reactions, aliquots of infected-cell supernatants were incubated with proteinase K (Sigma-Aldrich, St. Louis, MO, USA) at 56 °C for 1 h in order to release the viral DNA. After a denaturation step at 95 °C for 5 min, the DNA samples were optionally stored at 4 °C or directly used for qPCR, as performed in a 25 µL reaction mixture containing 5 µL of either the sample or the standard DNA solution. Additional components of the reaction mixture were 12.5 µL 2× TaqMan PCR Mastermix (Applied Biosystems, Waltham, MA, USA), 7.5 pmol of each primer (5′-[…]-3′) and 5′-[…]-3′) and 5 pmol probe directed against the HCMV MIE region exon 4 (5′-[…]-3′), which was labeled with 6-carboxyfluorescein reporter dye and 6-carboxytetramethylrhodamine quencher dye. The DNA standard for quantification was prepared by serial dilutions of an MIE-inserted plasmid. The thermal cycling conditions consisted of two initial steps of 2 min at 50 °C and 10 min at 95 °C followed by 40 amplification cycles (15 s at 95 °C, 1 min 60 °C). Reactions were performed with an ABI Prism 7700 sequence detector (Applied Biosystems, Waltham, MA, USA).
(§2) To this end, the conditional expression system of the HCMV ΔUL50-ΣUL53 recombinant was applied. […] The relative differences in viral replication efficiencies, under these four chosen conditions, were normalized by two means, namely, by using the same conditions in the DMSO control panel (±S, ±D) and by evaluating viral replication in percentage values (% DMSO).
HFF-UL50 cells were cultivated in 96-well plates and infected with (A,B) HCMV ∆UL50-ΣUL53, with (C) parental HCMV AD169 (WT), using adjusted genome copy numbers, or remained uninfected (mock). Viral input was adjusted to 1 × 10^5 copies per well. […] Dox was refreshed every second day. At 14 d p.i., supernatants were harvested, and viral genome equivalents were determined using HCMV IE1-specific qPCR. Each condition was examined in biological quadruplicates; mean values ± SDs are shown. […] Statistical analysis was performed using ordinary one-way ANOVA and post hoc Tukey testing; **** p ≤ 0.0001; n.s., not significant.

HCMV AD169 (WT) = assay: qPCR-based replication assay, parental HCMV AD169 (WT) in HFF-UL50 cells; assay type: cell-based
Description: as §1, §2
HFF-UL50 cells were cultivated in 96-well plates and infected with (A,B) HCMV ∆UL50-ΣUL53, with (C) parental HCMV AD169 (WT), using adjusted genome copy numbers, or remained uninfected (mock). Viral input was adjusted to 1 × 10^5 copies per well. […] Dox was refreshed every second day. At 14 d p.i., supernatants were harvested, and viral genome equivalents were determined using HCMV IE1-specific qPCR. […]

C=CC(=O)N1CCC[C@@H](n2nc(-c3ccc(Oc4ccccc4)cc3)c3c(N)ncnc32)C1 [ibrutinib]
effect on pUL97–cyclin H NanoBiT interaction (in words) [1]: inactive
inhibitory effect on NanoBiT interaction signal (in words) [2]: most prominent, dose-dependent reduction in the measured interaction signal
inhibitory effect on NanoBiT interaction signal (in words) [3]: most prominent, dose-dependent reduction in the measured interaction signal
EC50 (HCMV ∆UL50-ΣUL53; +S+D (Shield-1 1 µM, Dox 500 ng/mL), 14 d p.i., qPCR, two biological replicates): 4.8 ± 11.1 µM
EC50 (HCMV ∆UL50-ΣUL53; Human betaherpesvirus 5, 336 h, +S+D (Shield-1 1 µM, Dox 500 ng/mL), 14 d p.i., qPCR, two biological replicates): 4 ± 3.6 µM
EC50 (HCMV ∆UL50-ΣUL53; Human betaherpesvirus 5, 336 h, +S-D (no pUL50 induction), 14 d p.i., qPCR): > 32 µM
EC50 (HCMV ∆UL50-ΣUL53; Human betaherpesvirus 5, 336 h, -S+D (no pUL53 stabilization), 14 d p.i., qPCR): > 32 µM
EC50 (HCMV ∆UL50-ΣUL53; Human betaherpesvirus 5, 336 h, -S-D (neither core NEC protein), 14 d p.i., qPCR, two replicates): > 32 µM
EC50 (HCMV ∆UL50-ΣUL53; Human betaherpesvirus 5, read-out: mean EC50, ∆UL50-ΣUL53, +S+D, mean of replicates): 4.4 µM
EC50 (HCMV AD169 (WT); Human betaherpesvirus 5, AD169, 336 h, AD169 WT, +S+D, 14 d p.i., qPCR, read-out: EC50): 2.3 ± 1.8 µM
EC50 (HCMV AD169 (WT); Human betaherpesvirus 5, AD169, 336 h, AD169 WT, -S-D, 14 d p.i., qPCR, read-out: EC50): 2.5 ± 2.8 µM
EC50 (HCMV AD169 (WT); Human betaherpesvirus 5, AD169, parental HCMV AD169, qPCR-based assays, mean, read-out: mean EC50): 2.4 µM
